Source: patent US20130345231A1, “ANTICANCER THERAPEUTIC AGENTS” (INDIANA UNIVERSITY RESEARCH AND TECHNOLOGY CORPORATION, priority 2011, published 2013)

Assays:
Type in all cases: cell-based
MCF-7 cells = conditions: for selectivity of toxicity, breast cancer versus non-malignant breast cells: at concentrations lower than 100 μM (10 μM), MCF7 vs MCF-10A
Experimental: The effect that a set of in silico selected compounds had on the viability of exponentially growing cultured malignant (MCF-7) and non-malignant (MCF-10A) breast cells was determined. Exponentially growing malignant (MCF-7) and non-malignant (MCF-10A) breast cells were incubated for 72 hours with 100 μM of the indicated compounds in growth media, before cell viability was determined colorimetrically using the MTT assay. […] Relative viability was determined by comparison to the viability of the cell cultures incubated in the presence of PBS/DMSO (vehicle) control instead of compound. […] Also were identified compounds that killed: both cell types with nearly equal preference; compounds that had little or no cytotoxic effect on either cell type, and compounds that preferentially killed the non-malignant breast cells.
The short- and long-term cytotoxic effects of each of the AOH compounds was determined essentially as described below for the caPeptide and related peptides, except that the initial cell based screening was determined by incubating cells for 72 hours with 100 μM of each compound. Compounds were classified into specific categories: 1) compounds that preferentially kill breast cancer but not non-malignant breast cells; 2) compounds that appear to kill both malignant and non-malignant breast cells without preference; 3) compounds that appear to have little or no toxicity toward either type of breast cell; and 4) compounds that appear to preferentially kill non-malignant breast cells. For those compounds falling into the first category, the short-term MTT viability assay was repeated using 10 μM of the selected AOH compound.
The MTT ((3-(4,5-Dimethylthiazol-2-yl)-2,5-diphenyltetrazolium bromide) assay was performed to determine the viability of cells exposed for various lengths of time to various peptide constructs containing or related to caPeptide. This assay determines the short-term affect each of the peptides has on cell viability. caPeptide's sequence is LGIPEQEY. The MTT assay was used to monitor the cytotoxic effect various caPeptides had on the viability of human MCF-7, MDA-MB436, HCC1937^(BRCA−) and HCC1937^(BRCA+) breast cancer cells. HCC1937^(BRCA−) cells harbor a hereditary mutation in the BRCA1 gene, that results in a non-functional gene product. These cells, are the parental wild-type to the HCC1937^+ cells, which express a fully functional BRCA1 human transgene. The assay was performed by seeding equal numbers of cells (5×10^3) into each of the wells of 96-well tissue culture plates for an overnight incubation to allow the cells to attach to the plates. In the morning, the cells in each of 3 individual wells were exposed to each of the various peptide constructs at the various concentrations indicated in the figures, for periods of 24, 48 and 72 hours. The MTT assay was then performed on the cells in each of the wells to determine the relative degree to which specific peptides were cytotoxic to each of these breast cancer cell lines. Percent viability at the end of the assay we determined colorimetrically by measuring the absorbance at 405 nm of the assay products formed in each well, averaging them, and then comparing the average absorbance of these assay products formed at each individual time period for each specific concentration of a specific peptide examined to the average absorbance of the 3 wells used to determine the viability of untreated cells exposed to PBS in place of peptide. These wells containing the PBS treated cells were assigned a relative viability of 100%, based upon the average absorbance of the reaction product formed in these wells, and the viability of the cells exposed to the various peptides under specific assay conditions was determined as a percentage of the absorbance produced by these PBS treated cells.

Panc-1 and Paca2 cells = experiment: MTT relative cytotoxicity toward pancreatic cancer lines (statements on both lines together); conditions: 72 hours; for cytotoxicity toward pancreatic cancer lines: 12.5, 25 and 50 μM
Experimental: (§1) FIG. 7: Relative cytotoxicity of the AOH compounds docking with caPCNA toward cultured Panc-1 (A) and Paca2 (B) cells. Relative cytotoxicity was determined by a colorimetric assay (MTT) measuring cell viability following a 72 hour incubation with the compounds indicated. Cells were exposed to DMSO/saline (series 1) and 12.5 (series 2) 25 (series 3) and 50 (series 4) μM of the indicated drug dissolved in DMSO for 72 hours prior to performing the MTT assay.

Panc-1 cells = test system: Panc-1 cells
Experimental: as §1
(§2) FIG. 8: 50 μM AOH-18, AOH-20, and AOH-39 were individually incubated with exponentially growing Panc-1 or Paca-2 cells for 72 hours, after which cell viability was determined colorimetrically using MTT.

Paca-2 cells = experiment: MTT cell viability assay, Paca-2 cells, 72 hours
Experimental: as §1, §2

Row | Compound | CC50 (MCF-7 cells) [µM] | cytotoxicity toward pancreatic cancer lines (Panc-1 and Paca2 cells) | further results
1 | CCN(C(=O)Nc1cccc(C(F)(F)F)c1)C(C)c1nc2ccccc2c(=O)n1-c1ccc(F)cc1 (stereo not shown) [AOH-59] | 3 to 40 | concentration dependent cytotoxicity | 
2 | CCNC(C)c1nc2ccccc2c(=O)n1Cc1ccccc1 (stereo not shown) [AOH-1] |  | concentration dependent cytotoxicity | 
3 | Cc1ccc(-n2c(C(C)N3CCNC(C)C3)nc3ccccc3c2=O)cc1 (stereo not shown) [AOH-16] |  | concentration dependent cytotoxicity | 
4 | CCn1c2ccccc2c2cc(CNCc3ccccc3)ccc21 [AOH-18] |  |  | relative sensitivity of MCF-7 cells among compounds (MCF-7 cells; 72 hours, MTT, rank by LC50): most sensitive; selectivity of toxicity, breast cancer versus non-malignant breast cells (MCF-7 cells): selectively toxic; LC50 (Panc-1 cells): not achieved over the concentration range tested; LC50 (Paca-2 cells): not achieved over the concentration range tested; loss in viability of both pancreatic cell lines (Panc-1 and Paca2 cells; at the MCF-7 LC50 concentration (~3 μM)): little or no loss in viability
5 | CC(C)(C)c1ccc(CNC2CCN(Cc3ccccc3)CC2)cc1 [AOH-20] | 3 to 40 |  | selectivity of toxicity, breast cancer versus non-malignant breast cells (MCF-7 cells): selectively toxic; LC50 (Panc-1 cells): not achieved over the concentration range tested; LC50 (Paca-2 cells): not achieved over the concentration range tested
6 | CCCCNC(=O)c1cc2oc(C)cc2n1Cc1cc(C)ccc1C [AOH-36] | 3 to 40 |  | 
7 | CCCCNC(=O)c1cc2occc2n1Cc1cc(C)ccc1C [AOH-34] |  | concentration dependent cytotoxicity | 
8 | Cc1nc(C)c(Cc2ccccc2F)c(N2CCN(CC(O)C(C)C)CC2)n1 (stereo not shown) [AOH-52] |  | concentration dependent cytotoxicity | 
